Measured values reported in patent US10947210B2 (priority 2015, dated 2021).
Like-named read-outs stand apart in the source and are kept apart here.

Legend:
[1] = molecular target: HCV RNA-dependent RNA polymerase (NS5B) (Hepatitis C virus genotype 1b (isolate BK) (HCV), UniProt P26663); assay: RNA-Dependent RNA HCV NS5B (polymerase) Assay and IC50 Determination; type: biochemical; conditions: purified HCV NS5B polymerase, polyA:U16 substrate, 32P-UTP incorporation
Outline: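 Purified NS5B was incubated with 0.5 uM polyA:U16, 10 μM UTP plus ^32P-UTP in 50 mM Hepes-KOH pH 7.5, 5 mM MgCl2, 5 mM DTT, 2% glycerol and 0.01% Triton X-100. Inhibitor reactions ran 60 min at 37° C, and radiolabelled RNA product was quantified after filter capture. IC50 values were obtained from concentration series.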

[2] = tested on: HCV subgenomic RNA replicon in Huh-luc/neo-ET cells; assay: HCV Replicon Assay and EC50 Determination; type: cell-based; conditions: Hepatitis C virus, 72 hours, luciferase reporter activity
Procedure: HCV Replicon Assay and EC50 Determination.
HCV replicon assay is based on the luciferase reporter cell line (Huh-luc/neo-ET). This reporter cell line is a human liver carcinoma cell line (Huh-7) stably transfected with an autonomously replicating bicistronic HCV subgenomic RNA replicon (Lohmann et al., 1999, Science, 285, 110-113). Inhibition of HCV RNA replication was monitored through analysis of reporter luciferase activity. Briefly, HCV replicon cells were incubated with inhibitors for 72 hours at 37° C. After the incubation, duplicate plates were treated and incubated in parallel for assessment of cellular toxicity by XTT staining and anti-HCV activity by measurement of luciferase reporter activity. Either human interferon alpha 2B or ribavirin was used as a reference compound. EC50 values were determined using GraFit (Erithaus software) or Excel.
Table 2 presents EC50 data obtained using this HCV replicaon assay to test representative compounds. Data are presented as follows: “+++” means <0.1 μM; “++” means ≥0.1 μM and <1.0 μM; “+” means ≥1.0 μM.

HCV RNA-dependent RNA polymerase (NS5B), sequence (P26663 2420-3010): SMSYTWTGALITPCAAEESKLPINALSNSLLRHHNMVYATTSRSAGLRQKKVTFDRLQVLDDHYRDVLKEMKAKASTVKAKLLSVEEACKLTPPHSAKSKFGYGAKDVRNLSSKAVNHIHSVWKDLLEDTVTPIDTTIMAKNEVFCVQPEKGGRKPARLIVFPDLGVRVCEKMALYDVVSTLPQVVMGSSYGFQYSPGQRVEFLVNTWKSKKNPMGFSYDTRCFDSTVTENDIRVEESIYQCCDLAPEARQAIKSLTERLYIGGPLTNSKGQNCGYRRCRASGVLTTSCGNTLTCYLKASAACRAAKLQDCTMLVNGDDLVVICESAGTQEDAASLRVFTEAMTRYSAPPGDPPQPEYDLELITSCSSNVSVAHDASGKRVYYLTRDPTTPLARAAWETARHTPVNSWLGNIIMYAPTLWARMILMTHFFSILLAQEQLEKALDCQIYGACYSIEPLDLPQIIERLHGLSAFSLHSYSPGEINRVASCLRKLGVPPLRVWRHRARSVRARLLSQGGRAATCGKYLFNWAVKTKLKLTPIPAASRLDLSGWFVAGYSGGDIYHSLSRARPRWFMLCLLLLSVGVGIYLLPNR

| SMILES | IC50 ([1]; IC50 (μM)) [µM] | EC50 [2] [nM] | IC50 ([1]; read-out: IC50) [µM] |
| --- | --- | --- | --- |
| CNC(=O)c1c(-c2ccc(F)cc2)oc2cc(N(CCOCCOCc3cccc(C(C)=O)c3)S(C)(=O)=O)c(C3CC3)cc12 [Compound 02-8A, 6-(N-(2-(2-(3-Acetylbenzyloxy)-ethoxy)-ethyl)-methylsulfonamido)-5-cyclopropyl-2-(4-fluorophenyl)-N-methylbenzofuran-3-carboxamide] | > 1 | < 100 |  |
| CNC(=O)c1c(-c2ccc(F)cc2)oc2cc(N(CCOCCOCc3cccc(C(=O)/C=C(\O)C(=O)O)c3)S(C)(=O)=O)c(C3CC3)cc12 [Compound 02-10A, 4-{3-[2-(2-{[5-Cyclopropyl-2-(4-fluoro-phenyl)-3-methylcarbamoyl-benzofuran-6-yl]-methanesulfonyl-amino}-ethoxy)-ethoxymethyl]-phenyl}-2-hydroxy-4-oxo-but-2-enoic Acid] |  | < 100 | 0.1 to 1 |
| CNC(=O)c1c(-c2ccc(F)cc2)oc2cc(N(CCOCCOCCOCCOCCOCCOCc3cccc(C(=O)/C=C(\O)C(=O)O)c3)S(C)(=O)=O)c(C3CC3)cc12 [Compound 02-10E, 4-(3-{2-[2-(2-{2-[2-(2-{[5-Cyclopropyl-2-(4-fluoro-phenyl)-3-methylcarbamoyl-benzofuran-6-yl]-methanesulfonyl-amino}-ethoxy)-ethoxy]-ethoxy}-ethoxy)-ethoxy]-ethoxymethyl}-phenyl)-2-hydroxy-4-oxo-but-2-enoic Acid] |  | 100 to 1000 | > 1 |
| CNC(=O)c1c(-c2ccc(F)cc2)oc2cc(N(CCOCCOCc3ccc(C(=O)/C=C(\O)C(=O)O)cc3)S(C)(=O)=O)c(C3CC3)cc12 [Compound 02-10F, 4-{4-[2-(2-{[5-Cyclopropyl-2-(4-fluoro-phenyl)-3-methylcarbamoyl-benzofuran-6-yl]-methanesulfonyl-amino}-ethoxy)-ethoxymethyl]-phenyl}-2-hydroxy-4-oxo-but-2-enoic Acid] |  | < 100 | > 1 |
| CNC(=O)c1c(-c2ccc(F)cc2)oc2cc(N(CCOCCCOCc3cccc(C(=O)/C=C(\O)C(=O)O)c3)S(C)(=O)=O)c(C3CC3)cc12 [Compound 03-8B, 4-{3-[3-(2-{[5-Cyclopropyl-2-(4-fluoro-phenyl)-3-methylcarbamoyl-benzofuran-6-yl]-methanesulfonyl-amino}-ethoxy)-propoxymethyl]-phenyl}-2-hydroxy-4-oxo-but-2-enoic Acid] |  | < 100 | > 1 |
| CNC(=O)c1c(-c2ccc(F)cc2)oc2cc(N(CCOCCOCCOCCO)S(C)(=O)=O)c(C3CC3)cc12 [Compound 04-5, 5-Cyclopropyl-2-(4-fluorophenyl)-6-(N-(2-(2-(2-(2-hydroxyethoxy)-ethoxy)-ethoxy)-ethyl) Methylsulfonamido)-N-methylbenzofuran-3-carboxamide] | > 1 | 100 to 1000 |  |
| CNC(=O)c1c(-c2ccc(F)cc2)oc2cc(N(CCOCCOCc3ccccc3C(=O)O)S(C)(=O)=O)c(C3CC3)cc12 [Compound 06-7A, 2-[2-(2-{[5-Cyclopropyl-2-(4-fluoro-phenyl)-3-methylcarbamoyl-benzofuran-6-yl]-methanesulfonyl-amino}-ethoxy)-ethoxymethyl]-benzoic Acid] |  | < 100 | 0.1 to 1 |
| CNC(=O)c1c(-c2ccc(F)cc2)oc2cc(N(CCOCCOCc3ccc(C(=O)O)cc3)S(C)(=O)=O)c(C3CC3)cc12 [Compound 06-7B, 4-[2-(2-{[5-Cyclopropyl-2-(4-fluoro-phenyl)-3-methylcarbamoyl-benzofuran-6-yl]-methanesulfonyl-amino}-ethoxy)-ethoxymethyl]-benzoic Acid] |  | 100 to 1000 | 0.1 to 1 |
| CNC(=O)c1c(-c2ccc(F)cc2)oc2cc(N(CCOCCOCc3cccc(C(=O)O)c3)S(C)(=O)=O)c(C3CC3)cc12 [Compound 06-7C, 3-[2-(2-{[5-Cyclopropyl-2-(4-fluoro-phenyl)-3-methylcarbamoyl-benzofuran-6-yl]-methanesulfonyl-amino}-ethoxy)-ethoxymethyl]-benzoic Acid] |  | < 100 | 0.1 to 1 |
| CNC(=O)c1c(-c2ccc(F)cc2)oc2cc(N(CCOC(=O)CNC(=O)CCCC(=O)O)S(C)(=O)=O)c(C3CC3)cc12 [Compound 08-6, 4-[(2-{[5-Cyclopropyl-2-(4-fluoro-phenyl)-3-methylcarbamoyl-benzofuran-6-yl]-methanesulfonyl-amino}-ethoxycarbonylmethyl)-carbamoyl]-butyric Acid] | 0.1 to 1 | 100 to 1000 |  |
| CNC(=O)c1c(-c2ccc(F)cc2)oc2cc(N(CC(=O)NCC(=O)NCc3cccc(C(=O)/C=C(\O)C(=O)O)c3)S(C)(=O)=O)c(C3CC3)cc12 [Compound 09-14A, 4-(3-{[2-(2-{[5-Cyclopropyl-2-(4-fluoro-phenyl)-3-methylcarbamoyl-benzofuran-6-yl]-methanesulfonyl-amino}-acetylamino)-acetylamino]-methyl}-phenyl)-2-hydroxy-4-oxo-but-2-enoic Acid] |  | 100 to 1000 | 0.1 to 1 |
| CNC(=O)c1c(-c2ccc(F)cc2)oc2cc(N(CC(=O)NC(C)(C)C(=O)NCc3cccc(C(=O)C=C(O)C(=O)O)c3)S(C)(=O)=O)c(C3CC3)cc12 [Compound 09-14C, 4-(3-{[2-(2-{[5-Cyclopropyl-2-(4-fluoro-phenyl)-3-methylcarbamoyl-benzofuran-6-yl]-methanesulfonyl-amino}-acetylamino)-2-methyl-propionylamino]-methyl}-phenyl)-2-hydroxy-4-oxo-but-2-enoic Acid] |  | 100 to 1000 | > 1 |
| CNC(=O)c1c(-c2ccc(F)cc2)oc2cc(N(CC(=O)NC3(C(=O)NCc4cccc(C(=O)C=C(O)C(=O)O)c4)CCCC3)S(C)(=O)=O)c(C3CC3)cc12 [Compound 09-14E, 4-[3-({[1-(2-{[5-Cyclopropyl-2-(4-fluoro-phenyl)-3-methylcarbamoyl-benzofuran-6-yl]-methanesulfonyl-amino}-acetylamino)-cyclopentanecarbonyl]-amino}-methyl)-phenyl]-2-hydroxy-4-oxo-but-2-enoic Acid] |  | 100 to 1000 | > 1 |
| CNC(=O)c1c(-c2ccc(F)cc2)oc2cc(N(CC(=O)NC(C)C(=O)NCc3cccc(C(=O)C=C(O)C(=O)O)c3)S(C)(=O)=O)c(C3CC3)cc12 (stereo not shown) [Compound 09-14F, 4-(3-{[2-(2-{[5-Cyclopropyl-2-(4-fluoro-phenyl)-3-methylcarbamoyl-benzofuran-6-yl]-methanesulfonyl-amino}-acetylamino)-propionylamino]-methyl}-phenyl)-2-hydroxy-4-oxo-but-2-enoic Acid] |  | 100 to 1000 | > 1 |
| CNC(=O)c1c(-c2ccc(F)cc2)oc2cc(N(CCCCOCCc3ccc(C(=O)O)cc3)S(C)(=O)=O)c(C3CC3)cc12 [Compound 13-8C, 4-(2-(4-(N-(5-cyclopropyl-2-(4-fluorophenyl)-3-(methylcarbamoyl)benzofuran-6-yl)-methylsulfonamido)butoxy)-ethyl)benzoic Acid] |  | < 100 | 0.1 to 1 |
| CNC(=O)c1c(-c2ccc(F)cc2)oc2cc(N(CCCCCCCc3ccc(C(=O)O)cc3)S(C)(=O)=O)c(C3CC3)cc12 [Compound 13-8D, 4-(7-{[5-Cyclopropyl-2-(4-fluoro-phenyl)-3-methylcarbamoyl-benzofuran-6-yl]-methanesulfonyl-amino}-heptyl)-benzoic Acid] |  | < 100 | 0.1 to 1 |
| CNC(=O)c1c(-c2ccc(F)cc2)oc2cc(N(CCCCCOCc3ccc(C(=O)O)cc3)S(C)(=O)=O)c(C3CC3)cc12 [Compound 16-7, 4-(5-{[5-Cyclopropyl-2-(4-fluoro-phenyl)-3-methylcarbamoyl-benzofuran-6-yl]-methanesulfonyl-amino}-pentyloxymethyl)-benzoic Acid] |  | < 100 | 0.1 to 1 |
| CCOC(=O)c1cc(COCCOCCN(c2cc3oc(-c4ccc(F)cc4)c(C(=O)NC)c3cc2C2CC2)S(C)(=O)=O)ccc1F [Compound 30-14, 5-[2-(2-{[5-Cyclopropyl-2-(4-fluoro-phenyl)-3-methylcarbamoyl-benzofuran-6-yl]-methanesulfonyl-amino}-ethoxy)-ethoxymethyl]-2-fluoro-benzoic acid ethyl ester] |  |  | > 1 |
| CNC(=O)c1c(-c2ccc(F)cc2)oc2cc(N(CCOCCOCCOCCCCCc3cccc(C(=O)CC(=O)C(=O)O)c3)S(C)(=O)=O)c(C3CC3)cc12 [Compound 30-15, 4-[3-(5-{2-[2-(2-{[5-Cyclopropyl-2-(4-fluoro-phenyl)-3-methylcarbamoyl-benzofuran-6-yl]-methanesulfonyl-amino}-ethoxy)-ethoxy]-ethoxy}-pentyl)-phenyl]-2,4-dioxo-butyric acid] |  |  | > 1 |
| CNC(=O)c1c(-c2ccc(F)cc2)oc2cc(N(CCOCCOCCOCCCCc3cccc(C(=O)CC(=O)C(=O)O)c3)S(C)(=O)=O)c(C3CC3)cc12 [Compound 30-16, 4-[3-(4-{2-[2-(2-{[5-Cyclopropyl-2-(4-fluoro-phenyl)-3-methylcarbamoyl-benzofuran-6-yl]-methanesulfonyl-amino}-ethoxy)-ethoxy]-ethoxy}-butyl)-phenyl]-2,4-dioxo-butyric acid] |  |  | > 1 |
